Measurements as given in ChEMBL document CHEMBL5370584, “Reprogramming Energy Metabolism with Synthesized PDK Inhibitors Based on Dichloroacetate Derivatives and Targeted Delivery Systems for Enhanced Cancer Therapy” (J Med Chem, 2023).
The source made the active and inactive calls. The rule behind the calls is not given here.

Columns and labels:
[1] = system: 4T1; assay: Induction of apoptosis in mouse 4T1 cells assessed as increase in GSH content at 1 to 2 uM measured after 12 to 24 hrs; format: functional, cell-based; conditions: dose 1-2 µM, time 12-24 hrs
[2] = system: MCF7; assay: Antiproliferative activity against human MCF7 cells assessed as inhibition of cell growth incubated for 24 hrs by MTT assay; format: functional, cell-based; conditions: MCF7, 24 h
[3] = Antiproliferative activity against African green monkey COS7 cells assessed as inhibition of cell growth incubated for 24 hrs by MTT assay; format: toxicity, cell-based, Chlorocebus aethiops, COS-7; conditions: African green monkey (Chlorocebus aethiops), COS-7 cells
[4] = system: 4T1; assay: Induction of apoptosis in mouse 4T1 cells assessed as reduction in Bcl-2 expression at 4 uM incubated for 24 hrs; format: functional, cell-based
[5] = system: 4T1; assay: Inhibition of glycolysis in mouse 4T1 cell lysates assessed as reduction in extracellular acidification rate at 2 to 6 uM measured after 6 hrs; format: functional, cell-based; conditions: dose 2-6 µM
[6] = Toxicity in BALB/c mouse assessed as effect on lung at 0.15 to 1.5 mg/kg measured upto 16 days; format: organism-based; conditions: in vivo, 384 h, dose 0.15-1.5 mg/kg, time < 16 day
[7] = system: 4T1; assay: Downregulation of c-myc expression in mouse 4T1 cells at 4 uM incubated for 24 hrs; format: functional, cell-based
[8] = system: 4T1; assay: Inhibition of glycolysis in mouse 4T1 cell lysates assessed as reduction in LDHA expression at 4 uM incubated for 24 hrs; format: functional, cell-based
[9] = system: 4T1; assay: Antiproliferative activity against mouse 4T1 cells assessed as inhibition of cell growth incubated for 24 hrs by MTT assay; format: functional, cell-based; conditions: 4T1, 24 h
[10] = Toxicity in BALB/c mouse assessed as effect on CREA level at 0.15 to 1.5 mg/kg measured upto 16 days; format: organism-based; conditions: in vivo, 384 h, dose 0.15-1.5 mg/kg, time < 16 day
[11] = system: 4T1; assay: Induction of apoptosis in mouse 4T1 cells assessed as activation of caspase 3 at 2 uM incubated for 12 to 18 hrs; format: functional, cell-based; conditions: time 12-18 hrs
[12] = Toxicity in BALB/c mouse assessed as effect on ALP level at 0.15 to 1.5 mg/kg measured upto 16 days; format: organism-based; conditions: in vivo, 384 h, dose 0.15-1.5 mg/kg, time < 16 day
[13] = Toxicity in BALB/c mouse assessed as effect on heart at 0.15 to 1.5 mg/kg measured upto 16 days; format: organism-based; conditions: in vivo, 384 h, dose 0.15-1.5 mg/kg, time < 16 day
[14] = system: 4T1; assay: Induction of apoptosis in mouse 4T1 cells assessed as activation of caspase 9 at 2 uM incubated for 12 to 18 hrs; format: functional, cell-based; conditions: time 12-18 hrs
[15] = system: 4T1; assay: Inhibition of glycolysis in mouse 4T1 cell lysates assessed as reduction in lactate production at 1 to 4 uM measured after 6 to 12 hrs; format: functional, cell-based; conditions: dose 1-4 µM, time 6-12 hrs
[16] = system: 4T1; assay: Induction of apoptosis in mouse 4T1 cells assessed as activation of cytochrome C release from mitochondria to cytosol at 1 to 4 uM incubated for 12 hrs; format: functional, cell-based; conditions: dose 1-4 µM
[17] = system: 4T1; assay: Induction of mitochondrial respiration in mouse 4T1 cells assessed as increase in oxygen consumption rate at 2 to 6 uM incubated for 6 hrs by seahorse XF96 flux analyzer; format: functional, cell-based; conditions: dose 2-6 µM
[18] = Toxicity in BALB/c mouse assessed as effect on spleen at 0.15 to 1.5 mg/kg measured upto 16 days; format: organism-based; conditions: in vivo, 384 h, dose 0.15-1.5 mg/kg, time < 16 day
[19] = Toxicity in BALB/c mouse assessed as effect on body weight at 0.15 to 1.5 mg/kg measured upto 16 days; format: organism-based; conditions: in vivo, 384 h, dose 0.15-1.5 mg/kg, time < 16 day
[20] = system: 4T1; assay: Induction of mitochondrial respiration in mouse 4T1 cells assessed as upregulation of intracellular ATP level at 2 uM incubated for 12 to 24 hrs […]; format: functional, cell-based; conditions: time 12-24 hrs
[21] = biological target: [Pyruvate dehydrogenase (acetyl-transferring)] kinase isozyme 3, mitochondrial (Mus musculus) (UniProt Q922H2); assay: Inhibition of PDK3 transcription in mouse 4T1 cells at 4 uM incubated for 24 hrs by qPCR analysis; format: cell-based
Sequence of [Pyruvate dehydrogenase (acetyl-transferring)] kinase isozyme 3, mitochondrial (Mus musculus) (Q922H2 whole entry): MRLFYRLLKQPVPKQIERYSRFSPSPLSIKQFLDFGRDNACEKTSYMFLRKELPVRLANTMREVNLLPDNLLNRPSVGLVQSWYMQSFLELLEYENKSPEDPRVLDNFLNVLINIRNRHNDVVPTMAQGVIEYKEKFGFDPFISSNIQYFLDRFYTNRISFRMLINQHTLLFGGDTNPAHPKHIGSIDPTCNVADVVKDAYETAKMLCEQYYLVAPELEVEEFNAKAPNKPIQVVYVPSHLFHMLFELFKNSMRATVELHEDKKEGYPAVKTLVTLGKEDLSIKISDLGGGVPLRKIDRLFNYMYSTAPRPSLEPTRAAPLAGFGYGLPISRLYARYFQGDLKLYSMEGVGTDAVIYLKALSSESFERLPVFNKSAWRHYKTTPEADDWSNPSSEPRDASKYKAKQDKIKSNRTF

[22] = Toxicity in BALB/c mouse assessed as effect on AST level at 0.15 to 1.5 mg/kg measured upto 16 days; format: organism-based; conditions: in vivo, 384 h, dose 0.15-1.5 mg/kg, time < 16 day
[23] = system: 4T1; assay: Antiproliferative activity against PDK knockdown mouse 4T1 cells assessed as reduction in apoptotic percentage at 2 uM incubated for 24 hrs by flow cytometry analysis (reference value: 61.6%); format: functional; design: scale not given: the % may be the effect or the level left
[24] = Toxicity in BALB/c mouse assessed as effect on liver at 0.15 to 1.5 mg/kg measured upto 16 days; format: organism-based; conditions: in vivo, 384 h, dose 0.15-1.5 mg/kg, time < 16 day
[25] = biological target: [Pyruvate dehydrogenase (acetyl-transferring)] kinase isozyme 4, mitochondrial (Mus musculus) (UniProt O70571); assay: Inhibition of PDK4 transcription in mouse 4T1 cells at 4 uM incubated for 24 hrs by qPCR analysis; format: cell-based
Sequence of [Pyruvate dehydrogenase (acetyl-transferring)] kinase isozyme 4, mitochondrial (Mus musculus) (O70571 whole entry): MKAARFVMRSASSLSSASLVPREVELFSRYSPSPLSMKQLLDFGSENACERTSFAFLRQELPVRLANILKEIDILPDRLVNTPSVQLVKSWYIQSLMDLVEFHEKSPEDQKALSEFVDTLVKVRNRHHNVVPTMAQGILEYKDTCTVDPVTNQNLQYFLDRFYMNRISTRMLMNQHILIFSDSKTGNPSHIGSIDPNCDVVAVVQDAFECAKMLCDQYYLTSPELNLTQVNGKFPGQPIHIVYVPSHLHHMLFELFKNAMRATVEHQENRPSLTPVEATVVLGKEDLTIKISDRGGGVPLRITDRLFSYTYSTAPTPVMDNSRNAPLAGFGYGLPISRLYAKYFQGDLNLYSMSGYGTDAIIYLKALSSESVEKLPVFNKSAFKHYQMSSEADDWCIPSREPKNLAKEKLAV

[26] = system: COS-7; assay: Effect on PDK1 expression in African monkey COS7 cells at 12 uM measured after 24 hrs; format: functional, cell-based; conditions: Chlorocebus aethiops
[27] = system: 4T1; assay: Induction of mitochondrial respiration in mouse 4T1 cells assessed as increase in glucose uptake at 2 to 6 uM incubated for 18 hrs followed by 6 hrs incubation in serum free high glucose medium by glucose uptake assay; format: functional, cell-based; conditions: dose 2-6 µM, time 24.0 hrs
[28] = system: 4T1; assay: Antitumor activity against mouse 4T1 cells xenografted in BALB/c mouse model assessed as reduction in inflammatory index in routine blood at 0.15 to 1.5 mg/kg; format: functional, organism-based; conditions: dose 0.15-1.5 mg/kg
[29] = system: 4T1; assay: Inhibition of glycolysis in mouse 4T1 cell lysates assessed as reduction in LDH activity at 1 to 2 uM incubated for 12 hrs; format: functional, cell-based; conditions: dose 1-2 µM
[30] = system: HeLa; assay: Antiproliferative activity against human HeLa cells assessed as inhibition of cell growth incubated for 24 hrs by MTT assay; format: functional, cell-based
[31] = Antiproliferative activity against rat PBMC cells assessed as inhibition of cell growth at 5 uM incubated for 24 hrs by MTT assay; format: toxicity, cell-based
[32] = system: 4T1; assay: Induction of apoptosis in mouse 4T1 cells assessed as increase in Bax expression at 4 uM incubated for 24 hrs; format: functional, cell-based
[33] = Selectivity ratio of IC50 mouse 4T1 cells to IC50 for African green monkey COS7 cells
[34] = Toxicity in BALB/c mouse assessed as effect on UREA level at 0.15 to 1.5 mg/kg measured upto 16 days; format: organism-based; conditions: in vivo, 384 h, dose 0.15-1.5 mg/kg, time < 16 day
[35] = Toxicity in BALB/c mouse assessed as effect on UA level at 0.15 to 1.5 mg/kg measured upto 16 days; format: organism-based; conditions: in vivo, 384 h, dose 0.15-1.5 mg/kg, time < 16 day
[36] = system: 4T1; assay: Induction of mitochondrial membrane potential depolarization in mouse 4T1 cells at high dose measured after 12 hrs by JC-1 staining based analysis; format: functional, cell-based
[37] = system: 4T1; assay: Downregulation of HIF-1alpha expression in mouse 4T1 cells at 4 uM incubated for 24 hrs; format: functional, cell-based
[38] = Toxicity in BALB/c mouse assessed as effect on ALT level at 0.15 to 1.5 mg/kg measured upto 16 days; format: organism-based; conditions: in vivo, 384 h, dose 0.15-1.5 mg/kg, time < 16 day
[39] = system: COS-7; assay: Effect on phosphorylation of PDH expression at Serine 293 residues in African monkey COS7 cells at 12 uM measured after 24 hrs; format: functional, cell-based; conditions: Chlorocebus aethiops
[40] = biological target: [Pyruvate dehydrogenase (acetyl-transferring)] kinase isozyme 1, mitochondrial (Mus musculus) (UniProt Q8BFP9); assay: Inhibition of PDK1 transcription in mouse 4T1 cells at 4 uM incubated for 24 hrs by qPCR analysis; format: cell-based
Sequence of [Pyruvate dehydrogenase (acetyl-transferring)] kinase isozyme 1, mitochondrial (Mus musculus) (Q8BFP9 whole entry): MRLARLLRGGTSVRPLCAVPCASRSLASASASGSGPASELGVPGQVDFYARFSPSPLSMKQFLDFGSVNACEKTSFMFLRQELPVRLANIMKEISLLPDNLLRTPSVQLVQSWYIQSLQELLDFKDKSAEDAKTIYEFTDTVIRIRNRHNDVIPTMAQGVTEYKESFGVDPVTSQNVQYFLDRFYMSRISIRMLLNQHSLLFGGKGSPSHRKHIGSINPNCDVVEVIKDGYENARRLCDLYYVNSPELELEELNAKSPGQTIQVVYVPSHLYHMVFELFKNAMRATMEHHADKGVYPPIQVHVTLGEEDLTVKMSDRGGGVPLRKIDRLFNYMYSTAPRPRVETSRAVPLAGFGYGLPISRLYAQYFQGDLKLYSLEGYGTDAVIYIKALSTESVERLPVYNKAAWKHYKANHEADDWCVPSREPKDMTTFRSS

[41] = system: COS-7; assay: Effect on PDK4 expression in African monkey COS7 cells at 12 uM measured after 24 hrs; format: functional, cell-based; conditions: Chlorocebus aethiops

Q: With `O=C(CCCCCNC(=O)C(Cl)Cl)Nc1ccc([As]2SCCCS2)cc1` as the compound, how does the Activity [1] read?
A: Active

Q: And the IC50 [2]?
A: 2500 nM

Q: What about the IC50 at 24 h [3] of the same compound?
A: 11200 nM

Q: And the Activity [4]?
A: Active

Q: And the inhibition [5]?
A: Active

Q: And the Activity [6]?
A: Non-Toxic

Q: And the Activity [7]?
A: Active

Q: And the inhibition [8]?
A: Active

Q: And the IC50 [9]?
A: 1920 nM

Q: And the Activity [10]?
A: Non-Toxic

Q: And the Activity [11]?
A: Active

Q: What about the Activity [12] of the same compound?
A: Non-Toxic

Q: What about the Activity [13] of the same compound?
A: Non-Toxic

Q: And the Activity [14]?
A: Active

Q: What about the inhibition [15] of the same compound?
A: Active

Q: And the Activity [16]?
A: Active

Q: What about the Activity [17] of the same compound?
A: Active

Q: And the Activity [18]?
A: Non-Toxic

Q: And the Activity [19]?
A: Non-Toxic

Q: And the Activity [20]?
A: Active

Q: What about the inhibition [21] of the same compound?
A: Active

Q: What about the Activity [22] of the same compound?
A: Non-Toxic

Q: What about the Activity [23] of the same compound?
A: 16.1%

Q: What about the Activity [24] of the same compound?
A: Non-Toxic

Q: And the inhibition [25]?
A: Active

Q: What about the Activity [26] of the same compound?
A: inactive

Q: What about the Activity [27] of the same compound?
A: Active

Q: What about the Activity [28] of the same compound?
A: Active

Q: And the inhibition [29]?
A: Active

Q: What about the IC50 [30] of the same compound?
A: 2500 nM

Q: What about the Activity [31] of the same compound?
A: Non-Toxic

Q: What about the Activity [32] of the same compound?
A: Active

Q: And the “Ratio IC50” value [33]?
A: 6

Q: And the Activity [34]?
A: Non-Toxic

Q: What about the Activity [35] of the same compound?
A: Non-Toxic

Q: And the Activity [36]?
A: Active

Q: What about the Activity [37] of the same compound?
A: Active

Q: What about the Activity [38] of the same compound?
A: Non-Toxic

Q: What about the Activity [39] of the same compound?
A: inactive

Q: And the inhibition [40]?
A: Active

Q: What about the Activity [41] of the same compound?
A: inactive
